Source: PubChem BioAssay AID977605 (Broad Institute, 2014)
Active and inactive are the calls of the source.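 Rule for the calls: active = fitted curve reaches 40% activation below the top valid tested dose, in every test run; inconclusive = test runs disagree on the call; inactive = the rest, including effects opposite to the expected direction.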

Assay: endothelial E-selectin upregulation by compounds – imaging, HUVEC, cherry-picked samples, dose response (AID 977605);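 note: signal is the share of imaged cells scored positive for E-selectin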
Settings: HUVEC E-selectin immunostaining, at 18 µM (top of the series), percent of TNF-alpha response over vehicle

Row | SMILES | activation
1 | C[C@@H]1CN([C@H](C)CO)C(=O)Cc2cc(NC(=O)Cc3ccccc3)ccc2O[C@H]1CN(C)C(=O)Nc1cccc2ccccc12 | 0.676% (inactive)

Same assay, conditions: HUVEC E-selectin immunostaining, at 19.5 µM (top of the series), percent of TNF-alpha response over vehicle

Row | SMILES | activation
2 | Cc1noc(C)c1NC(=O)Nc1cccc2c1O[C@H](CN(C)CC1CCCCC1)[C@H](C)CN([C@@H](C)CO)C2=O | 0.049% (inactive)
3 | CCC(=O)N(C)C[C@H]1Oc2ncc(Br)cc2C(=O)N([C@@H](C)CO)C[C@@H]1C | 0.243% (inactive)
4 | CCCC#Cc1ccc2c(c1)O[C@@H](CN(C)CCC)[C@@H](C)CN([C@@H](C)CO)S2(=O)=O | -0.152% (inactive)
5 | CCC(=O)N(C)C[C@H]1Oc2cc(C3=CCCC3)ccc2S(=O)(=O)N([C@@H](C)CO)C[C@@H]1C | -0.074% (inactive)
6 | CCN(CC)c1ccc(S(=O)(=O)N2CCOCC2)cc1NC(=O)CN1C(=O)NC2(CCCC2)C1=O | 4.54% (inactive)
7 | O=S(=O)(NCc1csc(-c2cccs2)n1)c1ccc(Cl)cc1 | 0.045% (inactive)
8 | COc1ccc(N2CCN(C(=O)c3ccccc3NC(=O)C3=C(C)OCCS3)CC2)cc1 | -0.181% (inactive)
9 | O=S(=O)(c1ccc(F)cc1)N1CCCN(c2nccc(C(F)(F)F)n2)CC1 | -0.174% (inactive)
10 | C[C@H](CO)N1C[C@H](C)[C@H](CN(C)S(=O)(=O)c2ccccc2)Oc2c(NC(=O)Nc3ccccc3)cccc2C1=O | -0.014% (inactive)
11 | O=C(O)CC1C(=O)NCCN1Cc1cccs1 (stereo unspecified) | -0.112% (inactive)
12 | COc1ccc(S(=O)(=O)N(C)C[C@H]2Oc3ccc(NC(=O)c4ccncc4)cc3C(=O)N([C@@H](C)CO)C[C@@H]2C)cc1 | -0.047% (inactive)
13 | COc1ccc(CCNS(=O)(=O)c2ccc3c(c2)NC(=O)CS3)cc1OC | -0.024% (inactive)
14 | C[C@@H]1CN([C@@H](C)CO)C(=O)c2cc(NS(=O)(=O)c3cccs3)ccc2O[C@H]1CN(C)C(=O)Nc1ccc2c(c1)OCO2 | -0.287% (inactive)
15 | C[C@H](CO)N1C[C@H](C)[C@@H](CN(C)C(=O)NC2CCCCC2)Oc2c(NC(=O)Nc3ccc(F)cc3)cccc2C1=O | 0.219% (inactive)
16 | COc1cccc(C(=O)Nc2cc(C)c3c(=O)oc4ccccc4c3n2)c1 | 2.1% (inactive)
17 | CC(C)NC(=O)N(C)C[C@@H]1Oc2c(NC(=O)c3ccc(-c4nccs4)cc3)cccc2C(=O)N([C@H](C)CO)C[C@H]1C | -0.093% (inactive)
18 | Cc1noc(C)c1S(=O)(=O)Nc1ccc2c(c1)C(=O)N([C@H](C)CO)C[C@@H](C)[C@H](CN(C)Cc1ccc3c(c1)OCO3)O2 | -0.134% (inactive)
19 | O=C(NCc1ccccc1)C(c1ccc(C(F)(F)F)cc1)N1CCN(CCN2CCOCC2)CC1 (stereo unspecified) | 6.03% (inactive)
20 | COc1ccc(S(=O)(=O)Nc2ccc3c(c2)C(=O)N([C@H](C)CO)C[C@@H](C)[C@H](CN(C)Cc2ccc(Cl)c(Cl)c2)O3)cc1 | -0.125% (inactive)
21 | C[C@H](CO)N1C[C@H](C)[C@@H](CN(C)S(C)(=O)=O)Oc2ccc(NC(=O)C3CCCCC3)cc2CC1=O | 0.112% (inactive)

Row | SMILES | activation
22 | C[C@@H]1CN([C@H](C)CO)C(=O)c2cccc(NC(=O)C3CC3)c2O[C@@H]1CN(C)CC1CC1 | -0.106% (inactive)
23 | COc1ccc(C)cc1NC(=O)C(NCC(O)c1ccccc1)c1ccccc1 (stereo unspecified) | -0.094% (inactive)
24 | C[C@@H]1CN([C@H](C)CO)C(=O)c2cc(NS(=O)(=O)c3cn(C)cn3)ccc2O[C@H]1CN(C)C(=O)Nc1ccc2c(c1)OCO2 | 0.041% (inactive)
25 | C[C@@H]1CN([C@@H](C)CO)C(=O)Cc2cc(NC(=O)Cc3ccccc3)ccc2O[C@H]1CN(C)C(=O)Nc1cccc2ccccc12 | -0.158% (inactive)
26 | CC(C)NC(=O)N(C)C[C@@H]1Oc2ccc(NC(=O)CCN3CCOCC3)cc2C(=O)N([C@@H](C)CO)C[C@H]1C | 0.429% (inactive)
27 | CC(C)NC(=O)Nc1ccc2c(c1)CC(=O)N([C@@H](C)CO)C[C@H](C)[C@@H](CN(C)Cc1ccc(C(=O)O)cc1)O2 | 0.001% (inactive)
28 | CC1CN(S(=O)(=O)c2ccc(F)cc2)C(C)N1C(=O)N1CCOCC1 (stereo unspecified) | -0.215% (inactive)
29 | COc1cccc(CNC(=O)c2cc3c(cc2Cl)N2CCCCCC2=NS3(=O)=O)c1 | -0.058% (inactive)
30 | CCOC(=O)N1CCN(c2c(N3CCOCC3)c(=O)c2=O)CC1 | 7.45% (inactive)
31 | CC1CCC(NC(=O)CCN2C(=O)C3C4C=CC(C4)C3C2=O)CC1 (stereo unspecified) | 0.46% (inactive)
32 | O=C(COc1ccc(Cl)cc1)NCCCNC(=O)c1cnccn1 | 0.135% (inactive)
33 | CSc1nc2c(cnn2-c2ccc(C)c(C)c2)c(=O)[nH]1 | 0.487% (inactive)
34 | C[C@H](CO)N1C[C@H](C)[C@H](CN(C)Cc2ccc(C(=O)Nc3ccccc3N)cc2)Oc2ccc(NS(=O)(=O)c3cccs3)cc2CC1=O | 6.58% (inactive)
35 | COc1ccc(CN(C)C[C@@H]2Oc3c(NC(=O)Nc4ccc(F)cc4)cccc3C(=O)N([C@@H](C)CO)C[C@H]2C)cc1 | 8.09% (inactive)
36 | C[C@H]1CN([C@@H](C)CO)C(=O)c2cccc(NC(=O)Nc3ccc(F)cc3)c2O[C@H]1CN(C)CC1CCCCC1 | -0.099% (inactive)
37 | CC(C)c1ccc(C(=O)Nc2nnc(S(=O)(=O)N3CCCCC3)s2)cc1 | -0.055% (inactive)
38 | C[C@H]1CN([C@@H](C)CO)C(=O)c2cccc(NC(=O)C3CC3)c2O[C@H]1CN(C)Cc1ccccc1 | 1.36% (inactive)
39 | COc1ccc(OCC(O)CNC(=O)c2ccccc2)cc1 (stereo unspecified) | 4.38% (inactive)
40 | C[C@@H]1CN([C@@H](C)CO)C(=O)c2cc(NC(=O)Nc3ccc4c(c3)OCO4)ccc2O[C@H]1CN(C)C | -0.091% (inactive)
41 | Oc1cccc(Oc2ncc(C(F)(F)F)cc2Cl)c1 | -0.09% (inactive)

Row | SMILES | activation
42 | O=S(=O)(Nc1cccc2[nH]ncc12)c1cccs1 | -0.069% (inactive)
43 | C[C@@H]1CN([C@@H](C)CO)C(=O)c2cc(NC(=O)Nc3ccc(C(F)(F)F)cc3)ccc2O[C@@H]1CN(C)Cc1ccc(Oc2ccccc2)cc1 | -0.275% (inactive)
44 | C[C@@H]1CN([C@H](C)CO)C(=O)c2cccc(NS(=O)(=O)c3cccs3)c2O[C@H]1CN(C)Cc1ccc(Cl)c(Cl)c1 | -0.024% (inactive)
45 | CN(C1CCCCC1)S(=O)(=O)c1cn(C)c(=O)n(C)c1=O | -0.175% (inactive)
46 | C[C@H](CO)N1C[C@H](C)[C@@H](CN(C)S(=O)(=O)c2cn(C)cn2)Oc2ccc(N(C)C)cc2C1=O | 0.037% (inactive)
47 | Cn1c(CNS(=O)(=O)c2ccc(Cl)cc2)cc(=O)n(C)c1=O | -0.279% (inactive)
48 | C[C@@H]1CN([C@@H](C)CO)C(=O)Cc2cc(NS(=O)(=O)c3cccs3)ccc2O[C@H]1CN(C)C(=O)Nc1ccc(F)cc1 | -0.169% (inactive)
49 | O=C(O)CCC(=O)NCC(=O)c1ccc(F)cc1 | -0.239% (inactive)
50 | C[C@H](CO)N1C[C@H](C)[C@H](CN(C)Cc2ccc(Cl)c(Cl)c2)Oc2c(NC(=O)CCCCCC(=O)Nc3ccccc3N)cccc2C1=O | 0.173% (inactive)
51 | C[C@H](CO)N1C[C@H](C)[C@@H](CN(C)Cc2ccc(C(F)(F)F)cc2)Oc2ccc(N(C)C)cc2CC1=O | 0.906% (inactive)
52 | C[C@@H]1CN([C@H](C)CO)C(=O)c2cc(NC(=O)Cn3cnnn3)ccc2O[C@@H]1CN(C)Cc1ccc(Oc2ccccc2)cc1 | -0.117% (inactive)
53 | C[C@H](CO)N1C[C@H](C)[C@@H](CN(C)Cc2ccc(C(F)(F)F)cc2)Oc2c(NS(C)(=O)=O)cccc2C1=O | -0.122% (inactive)
54 | CC(C)NC(=O)Nc1ccc2c(c1)C(=O)N([C@@H](C)CO)C[C@@H](C)[C@@H](CN(C)Cc1ccc(C(F)(F)F)cc1)O2 | 0.127% (inactive)
55 | COc1ccc(S(=O)(=O)N(C)C[C@H]2Oc3ccc(NC(=O)Nc4ccc5c(c4)OCO5)cc3CC(=O)N([C@H](C)CO)C[C@@H]2C)cc1 | 0.086% (inactive)
56 | CCNC(=O)C[C@@H]1CC[C@H]2[C@@H](COc3ccc(NC(=O)Nc4ccc(F)cc4)cc3C(=O)N2C)O1 | -0.137% (inactive)
57 | Cc1noc(C)c1NC(=O)N(C)C[C@H]1Oc2ccc(NS(=O)(=O)c3cccs3)cc2C(=O)N([C@H](C)CO)C[C@@H]1C | 3.28% (inactive)
58 | O=C1Nc2ccccc2C1Cc1ccccn1 (stereo unspecified) | -0.092% (inactive)
59 | O=C(Nc1cccc(S(=O)(=O)NCc2ccco2)c1)c1cccc(Cl)c1 | 0.285% (inactive)
60 | CCOC(=O)C1(Cc2ccccc2C)CCCN(C(=O)c2ccnn2C)C1 (stereo unspecified) | -0.138% (inactive)
61 | COC(=O)c1ccc(CNC(=O)c2ccc(OC)c(S(=O)(=O)NC3CCCC3)c2)cc1 | -0.105% (inactive)

Same assay, conditions: HUVEC E-selectin immunostaining, at 21 µM (top of the series), percent of TNF-alpha response over vehicle

Row | SMILES | activation
62 | C[C@@H]1CN([C@@H](C)CO)C(=O)c2cc(NC(=O)CCCCCC(=O)Nc3ccccc3N)ccc2O[C@H]1CN(C)C(=O)Nc1ccc2c(c1)OCO2 | 0.05% (inactive)
63 | C[C@H](CO)N1C[C@H](C)[C@@H](CN(C)C(=O)NC2CCCCC2)Oc2ccc(NC(=O)Nc3ccc(C(F)(F)F)cc3)cc2C1=O | -0.177% (inactive)
64 | COc1ccc(S(=O)(=O)Nc2cccc3c2O[C@H](CN(C)C(=O)Nc2c(C)noc2C)[C@@H](C)CN([C@H](C)CO)C3=O)cc1 | -0.117% (inactive)
65 | C[C@@H]1CN([C@H](C)CO)C(=O)c2cccc(NC(=O)Nc3ccc4c(c3)OCO4)c2O[C@H]1CN(C)C(=O)Nc1ccc(C(F)(F)F)cc1 | 0.262% (inactive)
66 | C[C@H]1CN([C@@H](C)CO)C(=O)c2cc(NS(=O)(=O)c3cccs3)ccc2O[C@H]1CN(C)S(C)(=O)=O | 0.402% (inactive)
67 | C[C@H]1CN([C@@H](C)CO)C(=O)c2cccc(NS(=O)(=O)c3cccs3)c2O[C@@H]1CN(C)Cc1ccc(C(=O)Nc2ccccc2N)cc1 | -0.225% (inactive)
68 | C[C@H](CO)N1C[C@H](C)[C@H](CN(C)Cc2ccncc2)Oc2ccc(NS(C)(=O)=O)cc2CC1=O | 0.077% (inactive)
69 | C[C@@H]1CN([C@H](C)CO)C(=O)c2cccc(NS(=O)(=O)c3ccc(F)cc3)c2O[C@@H]1CN(C)S(=O)(=O)c1cccs1 | -0.042% (inactive)
70 | C[C@H](NC(=O)C[C@H]1CC[C@H]2[C@H](COc3ccc(NS(=O)(=O)c4ccc(Cl)cc4)cc3C(=O)N2C)O1)c1ccccc1 | 0.192% (inactive)
71 | Cc1noc(C)c1NC(=O)N(C)C[C@@H]1Oc2ccc(NC(=O)c3ccncc3)cc2C(=O)N([C@H](C)CO)C[C@@H]1C | 0.043% (inactive)
